Data reported in US10590383B2, “Methods for differentiating pluripotent cells” (FUJIFILM Cellular Dynamics, Inc., priority 2016, dated 2020).
“Also recorded” adds a separate entry of the source.

Assays:
[1] = system: human induced pluripotent stem cell (iPS) cell lines; experiment: mDA progenitor patterning on process day 17 (FoxA2 by flow cytometry, FoxA2/Lmx1 co-expression by ICC); format: cell-based; conditions: for percentage of mDA progenitors induced (FoxA2 / FoxA2+Lmx1 cells) / use in mono-SMAD inhibition methods to produce midbrain dopaminergic neurons from iPS cells: single SMAD inhibitor; for percentage of mDA progenitors induced (FoxA2 / FoxA2+Lmx1 cells): alternate patterning conditions, multiple iPSC lines, process day 17
Protocol: Midbrain neuronal differentiation of human induced pluripotent stem cell (iPS) cell lines expanded on VTN-TN in Essential 8 medium was performed with small molecule and growth factor induction using a variety of differentiation media compositions and schedules as detailed in Tables 1-5. Generally, the iPS cells were cultured in D1 DA Neuron Induction Medium on Day 1, D2 Neuron Induction Medium on Day 2, and D3-D4 DA Induction Medium on Day 3 and 4. On Day 5, the cells were dissociated with TrypLE for 15 minutes and collected in DA Quench Medium before transferring the cells to a spinner flask suspension culture to form aggregates in D5 DA Neuron Aggregate Formation Medium.
On Day 6, the aggregates were settled, about 66% of the medium was removed, and the aggregates were fed DA Neuron Induction Medium. On Days 7-16, the aggregates were fed daily with DA Neuron Aggregate Maintenance Medium, and the medium was changed on Day 11 through 16. On Day 17, aggregates were dissociated to a single-cell suspension with TrypLE and plated onto Matrigel in D17 DA Neuron Aggregate Plating Medium. On Days 18, 20, 22 the medium was replaced with DopaNeuron Maturation Medium. On Day 24, the cells were dissociated using Accutase and plated in DA Neuron Maturation Plating Medium. The next day, the medium was replaced with DopaNeuron Maturation Medium.
The iCell DopaNeurons process was optimized with most progenitor patterning factors added starting on day 1. This includes factors for neuralization (dual-SMADi), sonic hedgehog signaling (Shh, PMN), and Wnt signaling (CHIR). […] A large number of optimization experiments were carried out across several iPSC lines to define conditions for efficient mono-SMADi mDA progenitor patterning, varying the timing and dose of all patterning factors. […] In the alternate (ALT) method, the SHH/Purmophamine addition was moved from Day 1 to Day 2. The changes utilized in this improvement included: (i) staggering the addition of the Wnt agonist (CHIR) to day 2 or day 3, (ii) re-optimizing the CHIR concentration, as this is dependent on the time it is first added, and (iii) moving the window where PD03 is added, as the optimal window depends on when CHIR is added. The end result was a narrow set of conditions that led to highly-efficient mDA progenitor formation in multiple iPS cell lines. Approximately half of the iPSC lines tested were able to generate mDA progenitors using mono-SMADi conditions.
FoxA2/Lmx1 coexpression is the most accurate marker for mDA progenitor cells. The use of alternate patterning conditions allows for efficient mDA progenitor patterning in the context of mono-SMAD inhibition (“Mono/Alternate”), whereas the standard patterning conditions have poor mDA progenitor patterning in the context of mono-SMAD inhibition (“Mono/Standard”). Control differentiations using dual-SMADi and standard patterning conditions (“Dual/Standard”) are shown for comparison.
Once an alternate patterning condition was identified that allowed for successful differentiation using mono-SMAD inhibition (Condition 1, i.e., Table 4: Alternate, LDN at 200 nM), the method was refined using a matrix of conditions, including the concentration of CHIR, and the treatment windows for Shh signaling, Wnt signaling, and MEK inhibition. […] Tyrosine hydroxylase (TH) expression is low in immature mDA neurons.
Different inhibitors were tested for function in mono-SMADi methods, as follows. The iCell DopaNeurons process induces neuralization using LDN-193189, an inhibitor of BMP signaling (inhibits ALK 1/2/3/6, blocks SMAD 1/5/8), and SB-431542, an inhibitor of TGF-b signaling (inhibits ALK 4/5/7, blocks SMAD 2/3). Together, this is referred to as “dual SMAD inhibition”, or “dual SMADi.” To define optimal conditions for neuralization using only a single SMAD inhibitor in the mDA process, various analogs of LDN-193189 and SB-431542 were screened across multiple iPS cell lines using the alternate patterning conditions described above. […]

[2] = system: iPSC-derived mDA neurons; experiment: Marker characterization at process completion, day 37 (MAP2/nestin, FoxA2, TH); format: cell-based, human; conditions: 2 μM LDN versus 200 nM, Condition 7, iPSC line K
From the text: On Day 31, the cells were dissociated with Accutase and re-plated onto poly-L-ornithine (PLO)/Laminin-coated flasks in DA Neuron Maturation Plating Medium. Next, on Days 32, 34, and 36, the cells were fed DopaNeuron Maturation Medium. On Day 37 or 38, the cells were again dissociated with Accutase and subjected to analysis or cryopreserved for later use.
Three iPSC lines (C, K, and H) are shown as examples of successful differentiations taken to process completion (day 37) (FIG. 5). The iPSC lines C, K, and H are iPSC lines (21526.101, 21534.101, and 21531.101, respectively). Data was obtained using the approach in Table 4 for Alternate LDN and Table 1 for Standard Dual control. Differentiation of the H line using dual-SMADi and the optimized standard patterning is shown for comparison. In each case, a high level of neuron purity was observed (>90% MAP2+/nestin−), and essentially all neurons co-express FoxA2. The inventors have observed that the vast majority of MAP2+/FoxA2+ cells at this stage also express Lmx1, and are therefore mDA neurons. The DA neuron phenotype was confirmed by the expression of tyrosine hydroxylase (TH) in the majority of neurons, a marker of more mature DA neurons. […]

[3] = target: TGF-β type 1 (ALK4/5/7) receptor signaling; conditions: read-out: IC50 for inhibition of TGF-β type 1 (ALK4/5/7) receptor signaling; cited from earlier work
[4] = system: dividing cells / post-mitotic mDA neurons; experiment: In-process purification of mDA neurons with mitomycin C (neuron purity MAP2+/nestin-, day 37); format: cell-based, human; conditions: chemo drug selection, no selection gave 44%
From the text: In-Process Purification of mDA Neurons: Even with efficient mDA progenitor patterning, there is a population of cells that continues to proliferate even after the maturing mDA neurons leave the cell cycle (approximately day 25). […] Intermediate doses given for intermediate times could also be used to achieve a similar effect.

SMILES	percentage of mDA progenitors induced (FoxA2 / FoxA2+Lmx1 cells) [1]	use in mono-SMAD inhibition methods to produce midbrain dopaminergic neurons from iPS cells [1]	further results
Cc1cccc(-c2nn(C(=S)Nc3ccccc3)cc2-c2ccnc3ccccc23)n1 [A-83-01]	did not outperform LDN	–	–
CC(C)Oc1ccc(-c2cnc3c(-c4ccnc5ccccc45)cnn3c2)cc1 [DMH-1]	–	successfully used	–
c1ccc2c(-c3cnn4cc(-c5ccc(N6CCNCC6)cc5)cnc34)ccnc2c1 [LDN-193189]	best overall at inducing the highest percentage of mDA progenitors; also recorded: most efficient at neutralizing mDA progenitors across multiple iPSC lines	successfully used	FoxA2 and Lmx1 expression levels in day 17 progenitors ([1]; 2 μM LDN versus 200 nM, Condition 7, iPSC line K, n=5 experiments): higher FoxA2 and Lmx1 expression levels; percentage of floor plate-derived neurons (FoxA2+) on process day 37 [2]: higher percentage of floor plate-derived neurons (FoxA2+); IC50 [3]: > 500 nM
c1ccc(-c2[nH]ncc2-c2ccnc3ccccc23)nc1 [LY364947]	did not outperform LDN	–	–
CO[C@@]12[C@H](COC(N)=O)C3=C(C(=O)C(C)=C(N)C3=O)N1C[C@@H]1N[C@@H]12 [MMC, mitomycin C]	–	–	final neuron purity (MAP2+/nestin−) [4]: > 90%
